Assays:
SH-SY5Y cells [1] = assay: Protection from oligomerized Abeta 1-42 toxicity, ApoGlo caspase 3/7 activation assay; assay type: cell-based, human; conditions: for inherent toxicity: 4 mg/mL; for protection from Abeta induced toxicity (caspase 3/7 induction): 4 mg/mL for 24 hrs, then oligomerized Abeta1-42 for 72 hours
From the text: Upregulation of the HIF pathway is known to play a protective role in a number of neurodegenerative diseases, including pathologies that result in destruction of nerve cells and neurons. Such neurodegenerative diseases include Alzheimer's disease, Parkinson's disease, Huntington's disease, and Amylotrophic Lateral Sclerosis. Since treatment of SH-SY5Y upregulates HIF, treatment of cells with Apo- or Holo-transferrin should provide a protective effect on cells subjected to substances known to induce neurodegeneration. FIG. 7 highlights data assessing whether majorities of Apo- and Holo-transferrin could protect SH-SY5Y cells from the toxic effects of the known neurodegenerative toxin oligomerized Abeta 1-42 peptide (FIG. 7). SH-SY5Y neuronal cells cultured in growth media were treated with 4 mg/mL Apo-transferrin or Holo-transferrin for 24 hrs under normal oxygen levels. After 24 hrs, cells were treated with oligomerized Abeta1-42 peptide for an additional 72 hours. Following treatment with oligomerized Abeta1-42, cells were subjected to a ApoGlo caspase 3/7 activation assay. Control cells, untreated cells, were set to a normalized value of 1. The average caspase induction, relative to control cells, and standard deviations are shown for each treatment condition.

[2] = test system: renal proximal tubule epithelial (RPTEC) cells; assay: Cell Titer Glow viability assay, RPTEC cells; assay type: cell-based, human; conditions: 48 hours
Method: (§1) Considering the anticipated safety profile of a human plasma protein, toxicity of DFO and transferrins (majority Apo, majority Holo and mixtures) was assessed in primary human kidney cells. The renal proximal tubule epithelial (RPTEC) or cortical epithelial (HRCE) cells were treated with the indicated concentrations of majority ApoTf or DFO for 48 hours (FIG. 11A); and RPTEC or HRCE cells were treated for 72 hrs with 4 mg/mL of majority ApoTf, majority HoloTf, mixtures of transferrin (FIG. 11B). After 48 or 72 hours, cells were subjected to a Cell Titer Glow viability assay. Control cells, untreated cells, were set to a value of 100% viable. The average viability and standard deviations are shown for each treatment condition.

Glut1 = Glut1 mRNA expression by qPCR in SH-SY5Y cells; assay type: cell-based, human
Method: (§2) The stabilization of, and increase in, HIF-1α protein typically leads to an up-regulation of HIF-related genes (increase in the transcription of genes targeted by HIF), i.e. genes that have HIF binding sites in their transcriptional regulatory elements. Two well characterized genes that are activated by HIF-1α protein are Glut1 receptor and VEGF. Therefore, in order to analyze mRNA expression changes in each of these HIF target genes SH-SY5Y cell line cells were cultured and treated with majority ApoTf or majority HoloTf at a concentration of 1 mg/mL and 4 mg/mL under normoxic (21% oxygen) or hypoxic (1% oxygen) conditions for 6 hours. As a negative controls, cells were treated with HSA (1 mg/mL or 4 mg/mL) or were left untreated. After 6 hrs, intracellular mRNA was harvested and tested for Glut1 and VEGF expression levels by qPCR. Expression results were calculated relative to the expression of the corresponding transcript seen in untreated cells. FIGS. 4A and 4B show the expression results obtained for Glut1 receptor and VEGF, respectively. Values in the figures are shown as Relative Gene Expression, with the target gene (Glut1 or VEGF) normalized for housekeeper (beta-actin) expression.
(§3) In addition, mRNA expression levels of Glut1 and VEGF in response to majority Apotransferrin and DFO or IOX2 combinations were determined. […] Where indicated, either 200 uM DFO or 1 uM IOX2 were co-treated with the HSA and majority Apotransferrin. After 6 hr treatments, intracellular mRNA was harvested and tested for Glut1 and VEGF expression levels by qPCR. Values are shown as Relative Gene Expression, with the target gene (Glut1 or VEGF) normalized for housekeeper (beta-actin) expression. Standard deviations are shown.

HIF1 alpha protein [3] = assay: HIF1 alpha protein levels by ELISA in RPTEC cells; assay type: cell-based, human; conditions: 4 mg/mL, 6 hrs, normal oxygen
From the text: (§4) It is well-known in the art that many small molecules used for the treatment of conditions related or provoked by hypoxia are toxic and have numerous side effects, e.g. DFO. One of the most apparent side effects of said small molecules is kidney toxicity. Therefore, in order to assess whether transferrin and/or mixtures increase HIF1 alpha levels in primary kidney cells; human primary kidney cells, both primary human renal proximal tubule epithelial (RPTEC) or cortical epithelial cells (HRCE) were obtained. Primary human renal proximal tubule epithelial (RPTEC) or primary cortical epithelial (HRCE) cells cultured in serum free media were treated with 4 mg/mL majority Apo-transferrin, majority Holo-transferrin or various mixtures of each for 6 hrs under normal oxygen levels. After 6 hrs intracellular proteins were harvested and tested for HIF1 alpha protein levels by ELISA. FIGS. 10A and 10B reveal that HIF1 alpha levels are induced with transferrin composed of mixtures of Apo-transferrin and Holo-transferrin in RPTEC and HRCE, respectively.

NCI-H1650 = assay: Cell Titer Glow viability assay, NCI-H1650; assay type: cell-based, human; conditions: 4 mg/mL, 72 hours
Method: (§5) Given the anticipated safety profile of a human plasma protein, toxicity of transferrins (majority Apo, majority Holo and pd-transferrin) in NCI-H1650 and primary human hepatocyte cells was assessed. The human lung cell line, NCI-H1650, and primary human hepatocytes were treated for 72 hours with 4 mg/mL of majority ApoTf, majority HoloTf, or pd-transferrin. After 72 hours, cells were subjected to a Cell Titer Glow viability assay. Control cells, untreated cells, were set to a value of 100% viable. The average viability and standard deviations are shown in FIGS. 14A and 14B for each treatment condition.

SH-SY5Y cells [4] = assay: Cell Titer Glow viability assay, SH-SY5Y cells; assay type: cell-based, human; conditions: 4 mg/mL, 72 hours
Method: Since it has been reported that HoloTf is toxic to cells in vivo and in vitro, toxicity of various compositions containing majority ApoTf, majority HoloTf or mixtures of ApoTf+HoloTf was tested in SH-SY5Y cells. SH-SY5Y cells were treated with the indicated concentrations of 4 mg/mL Tf (as indicated in FIG. 5A), M30 or DFO for 72 hours. After 72 hours, cells were subjected to a Cell Titer Glow viability assay. Control cells, untreated cells, were set to a value of 100% viable. The average viability and standard deviations are shown for each treatment condition.

[5] = MCAo (Middle Cerebral Artery occlusion) rat model of brain stroke, infarct volume; assay type: in vivo; conditions: 385 mg/kg, IV, transient MCAo rat
VEGF = VEGF mRNA expression by qPCR in SH-SY5Y cells; assay type: cell-based, human
Method: as §2, §3

HIF1 alpha protein [6] = assay: HIF1 alpha protein levels by ELISA in HRCE cells; assay type: cell-based, human; conditions: 4 mg/mL, 6 hrs, normal oxygen
From the text: as §4

[7] = test system: cortical epithelial (HRCE) cells; assay: Cell Titer Glow viability assay, HRCE cells; assay type: cell-based, human; conditions: 48 hours
Method: as §1

HIF1alpha protein = HIF1alpha protein levels by ELISA in SH-SY5Y cells; assay type: cell-based, human
Method: Human neuroblastoma SH-SY5Y cell line cells, cultured in serum free media were treated with plasma derived ApoTf and HoloTf (in both cases at a concentration of 1 mg/mL and 4 mg/mL) for 6 hours under normoxia (21% oxygen) and hypoxia conditions (1% oxygen). […] After 6 hrs intracellular proteins were harvested and tested for HIF1alpha protein levels by ELISA.
Experiment performed in example 1 was repeated but performing treatments for 24 hours and only under normoxic conditions. After 24 hrs intracellular proteins were harvested and tested for HIF1 alpha protein levels by ELISA.
After 6 hrs, intracellular proteins were harvested and tested for HIF1 alpha protein levels by ELISA.
To determine whether Apotransferrin increases the potency of the iron chelator, DFO, and the phd2 inhibitor IOX2; SH-SY5Y neuronal cells cultured in serum free media were treated with 4 mg/mL of the indicated proteins in the presence or absence of small molecule drug under normal oxygen levels. The data shown in FIG. 8A relates to treatment of cells with a combination of DFO or IOX2, at the indicated concentrations, plus 4 mg/mL protein. CoCl2 was used as an experimental positive control. The data shown in FIG. 8B relates to treatment of cells with a combination of 10 uM M30 plus/minus 4 mg/mL protein. The data shown in FIG. 8C relates to treatment of cells with a combination of 200 uM DFO plus/minus 4 mg/mL protein. After 6 hrs intracellular proteins were harvested and tested for HIF1 alpha protein levels by ELISA. Data are shown in pg/mL with standard deviation.

[8] = test system: primary human hepatocytes; assay: Cell Titer Glow viability assay, primary human hepatocytes; assay type: cell-based; conditions: 4 mg/mL, 72 hours
Method: as §5

[9] = Modified Bederson and General Behavioral scores in rats; assay type: in vivo, rat; conditions: rats intravenously treated
Method: In vivo neurological function was assessed by a modified Bederson score (Bederson et al., 1986b; Crumrine et al., 2011) using the following definitions:
Score 0: No apparent neurological deficits;
Score 1: Body torsion present;
Score 2: Body torsion with right side weakness;
Score 3: Body torsion, right side weakness with circling behavior; and
Score 4: Seizure Activity.
General behavioral scores of rats were developed by the CALS personnel for the purpose of monitoring recovery of animals following surgical procedures (standard CALS post-operative care). A numerical value was assigned to the predetermined behavioral observations.
Score 0: Behavior consistent with a normal naïve rat (i.e. no ipsilateral deficit);
Score 1: Bright/active/responsive; the rat spontaneously moves and explores his cage, responds to external stimuli, explores the top of the cage;
Score 2: Quiet/alert/responsive; reserved behavior but will respond to external stimulus, tends not to rear or explore the top of the cage;
Score 3: Depressed behavior: tends not to move unless prodded, quickly returns to a somnolent state, little to no interest in external stimuli;
Score 4: Unresponsive: remains in a prostrate position even when prodded; and Score 5: Seizure activity requiring euthanasia.

[10] = 4 mg/mL, co-treated with 200 uM DFO or 1 uM IOX2, 6 hr, normal oxygen
[11] = hypoxic (1% oxygen), 6 hours, 1 mg/mL and 4 mg/mL
[12] = 1 mg/mL, 6 hours, hypoxia (1% oxygen), SH-SY5Y
[13] = 1 mg/mL, 6 hours, normoxia (21% oxygen), SH-SY5Y
[14] = 1 mg/mL, 24 hours, normoxic, SH-SY5Y
[15] = 4 mg/mL, 6 hours, hypoxia (1% oxygen), SH-SY5Y
[16] = 4 mg/mL, 6 hours, normoxia (21% oxygen), SH-SY5Y
[17] = 4 mg/mL, 24 hours, normoxic, SH-SY5Y
[18] = 6 hours, normoxic, SH-SY5Y (FIG. 3)
[19] = normoxic (21% oxygen), 6 hours, 1 mg/mL and 4 mg/mL

Molecule: majority ApoTf: plasma derived transferrin composition, majority iron-free apo-transferrin (98% ApoTf, 2% HoloTf)
- inherent toxicity (SH-SY5Y cells [1]): lack of inherent toxicity
- protection from Abeta induced toxicity (caspase 3/7 induction) (SH-SY5Y cells [1]): protect SH-SY5Y cells from Abeta induced toxicity
- toxicity (cell viability) [2]: none of the transferrin molecules showed any detrimental effects
- Glut1 mRNA levels in combination with small molecule activators of the HIF pathway (Glut1; [10]): increase synergistically and additively
- Glut1 mRNA expression relative to HSA controls (Glut1; [11]): significantly increased
- HIF1 alpha levels (HIF1 alpha protein [3]): Induce
- toxicity (cell viability) (NCI-H1650): no toxicity
- toxicity (cell viability) (SH-SY5Y cells [4]): No toxic effects
- volume of the infarcted area vs saline control [5]: significant decrease
- VEGF mRNA levels in combination with small molecule activators of the HIF pathway (VEGF; [10]): increase synergistically and additively
- VEGF mRNA expression relative to HSA controls (VEGF; [11]): significantly increased
- HIF1 alpha levels (HIF1 alpha protein [6]): Induce
- toxicity (cell viability) [7]: none of the transferrin molecules showed any detrimental effects
- HIF-1α cellular protein levels (HIF1alpha protein; [12]): significant increase
- HIF-1α cellular protein levels (HIF1alpha protein; [13]): significant increase
- HIF-1α cellular protein levels (HIF1alpha protein; [14]): increased
- effect on HIF1 alpha protein levels in combination with M30 (HIF1alpha protein; 4 mg/mL protein plus 10 uM M30, 6 hrs, normal oxygen, SH-SY5Y): synergistic effects
- effect on HIF1 alpha protein levels in combination with DFO (HIF1alpha protein; 4 mg/mL protein plus 200 uM DFO, 6 hrs, normal oxygen, SH-SY5Y): synergistic effects
- HIF-1α cellular protein levels (HIF1alpha protein; [15]): significant increase
- HIF-1α cellular protein levels (HIF1alpha protein; [16]): significant increase
- HIF-1α cellular protein levels (HIF1alpha protein; [17]): increased
- HIF-1α cellular protein levels (HIF1alpha protein; [18]): increase
- toxicity (cell viability) [8]: no toxicity
- modified Bederson and General Behavioral scores [9]: neither compositions of majority ApoTf nor majority HoloTf showed significant differences

Molecule: CC(=O)N(O)CCCCCNC(=O)CCC(=O)N(O)CCCCCNC(=O)CCC(=O)N(O)CCCCCN [DFO, deferoxamine, reference compound]
- toxicity (cell viability) [2]: significant toxicity
- toxicity (cell viability) [7]: significant toxicity

Molecule: majority HoloTf: plasma derived transferrin composition, majority diferric holo-transferrin (30% ApoTf, 70% HoloTf)
- inherent toxicity (SH-SY5Y cells [1]): lack of inherent toxicity
- protection from Abeta induced toxicity (caspase 3/7 induction) (SH-SY5Y cells [1]): protect SH-SY5Y cells from Abeta induced toxicity
- Glut1 mRNA expression (Glut1; [19]): increased expression
- HIF1 alpha levels (HIF1 alpha protein [3]): Induce
- toxicity (cell viability) (NCI-H1650): no toxicity
- toxicity (cell viability) (SH-SY5Y cells [4]): no toxicity or detrimental effects
- VEGF mRNA expression (VEGF; [19]): increased expression of only Glut1
- HIF1 alpha levels (HIF1 alpha protein [6]): Induce
- HIF-1α cellular protein levels (HIF1alpha protein; [12]): significant increase
- HIF-1α cellular protein levels (HIF1alpha protein; [13]): significant increase
- HIF-1α cellular protein levels (HIF1alpha protein; [14]): tendency towards an increase
- HIF-1α cellular protein levels (HIF1alpha protein; [15]): tendency towards an increase
- HIF-1α cellular protein levels (HIF1alpha protein; [16]): significant increase
- HIF-1α cellular protein levels (HIF1alpha protein; [17]): significant increase
- HIF-1α cellular protein levels (HIF1alpha protein; [18]): increase
- toxicity (cell viability) [8]: no toxicity
- modified Bederson and General Behavioral scores [9]: no detrimental effects
